# Results from ChEMBL document CHEMBL3885861, “Open TG-GATES”.
# Species on record: Rattus norvegicus
# Assay: Open TG-GATES - Regimen: Daily Repeat
# Assay type: toxicity, organism-based, Sprague-Dawley
# Set-up: regimen Daily Repeat, gender Male, age 6 weeks
# Settings: in vivo, po, 30 mg/kg, route gavage, dose level Low; for APTT / Bas / Eos / Fbg / Hb / Ht / Lym / MCH / MCHC / MCV / Mono / Neu / PT / Plat / RBC / Ret / WBC: tissue Blood; for KIDNEY_L / KIDNEY_R / KIDNEY_TOTAL: tissue Kidney; for LIVER: tissue Liver; for A/G / ALP / ALT / AST / BUN / CRE / Ca / Cl / DBIL / GLC / IP / K / LDH / Na / PL / RALB / TBIL / TC / TG / TP / gamma-GTP: tissue Plasma
smiles,measurement,setting,value
Cc1cccc(Nc2ccccc2C(=O)O)c1C [MEFENAMIC ACID],TERMINAL_BW,"72 h, time 3 day",232.8 g
same,APTT,"72 h, time 3 day",19.8 s
same,Bas,"72 h, time 3 day",0%
same,Eos,"72 h, time 3 day",1%
same,Fbg,"72 h, time 3 day",221.8 mg/dL
same,Hb,"72 h, time 3 day",13.4 g/dL
same,Ht,"72 h, time 3 day",38.3%
same,Lym,"72 h, time 3 day",79.6%
same,MCH,"72 h, time 3 day",21.4 pg
same,MCHC,"72 h, time 3 day",35%
same,MCV,"72 h, time 3 day",61.1 fL
same,Mono,"72 h, time 3 day",2.4%
same,Neu,"72 h, time 3 day",15.4%
same,PT,"72 h, time 3 day",11.9 s
same,Plat,"72 h, time 3 day",117.6 x10_4/uL
same,RBC,"72 h, time 3 day",627.4 x10_4/ul
same,Ret,"72 h, time 3 day",5.6%
same,WBC,"72 h, time 3 day",94.5 x10_2/uL
same,KIDNEY_L,"72 h, time 3 day",1 g
same,KIDNEY_R,"72 h, time 3 day",1 g
same,KIDNEY_TOTAL,"72 h, time 3 day",2 g
same,LIVER,"72 h, time 3 day",10.6 g
same,A/G,"72 h, time 3 day",1.6
same,ALP,"72 h, time 3 day",1154.4 IU/L
same,ALT,"72 h, time 3 day",36.2 IU/L
same,AST,"72 h, time 3 day",66.2 IU/L
same,BUN,"72 h, time 3 day",14.6 mg/dL
same,CRE,"72 h, time 3 day",0.4 mg/dL
same,Ca,"72 h, time 3 day",10.8 mg/dL
same,Cl,"72 h, time 3 day",102 meq/L
same,DBIL,"72 h, time 3 day",0.09 mg/dL
same,GLC,"72 h, time 3 day",190.6 mg/dL
same,IP,"72 h, time 3 day",7.8 mg/dL
same,K,"72 h, time 3 day",4.2 meq/L
same,LDH,"72 h, time 3 day",171.8 IU/L
same,Na,"72 h, time 3 day",140 meq/L
same,PL,"72 h, time 3 day",164.6 mg/dL
same,RALB,"72 h, time 3 day",3.5 g/dL
same,TBIL,"72 h, time 3 day",0.2 mg/dL
same,TC,"72 h, time 3 day",91 mg/dL
same,TG,"72 h, time 3 day",94.4 mg/dL
same,TP,"72 h, time 3 day",5.6 g/dL
same,gamma-GTP,"72 h, time 3 day",0.8 IU/L
same,TERMINAL_BW,"[…], time 7 day",268.5 g
same,TERMINAL_BW,"[…], time 14 day",312.8 g
same,TERMINAL_BW,"[…], time 28 day",397.4 g
same,APTT,"[…], time 7 day",19.2 s
same,Bas,"[…], time 7 day",0%
same,Eos,"[…], time 7 day",1.4%
same,Fbg,"[…], time 7 day",237 mg/dL
same,Hb,"[…], time 7 day",14 g/dL
same,Ht,"[…], time 7 day",39%
same,Lym,"[…], time 7 day",80.4%
same,MCH,"[…], time 7 day",22.2 pg
same,MCHC,"[…], time 7 day",35.8%
same,MCV,"[…], time 7 day",61.9 fL
same,Mono,"[…], time 7 day",2%
same,Neu,"[…], time 7 day",15%
same,PT,"[…], time 7 day",11.8 s
same,Plat,"[…], time 7 day",125.5 x10_4/uL
same,RBC,"[…], time 7 day",629.6 x10_4/ul
same,Ret,"[…], time 7 day",5.4%
same,WBC,"[…], time 7 day",98.6 x10_2/uL
same,APTT,"[…], time 14 day",19.6 s
same,Bas,"[…], time 14 day",0%
same,Eos,"[…], time 14 day",1%
same,Fbg,"[…], time 14 day",224.2 mg/dL
same,Hb,"[…], time 14 day",14.5 g/dL
same,Ht,"[…], time 14 day",40.6%
same,Lym,"[…], time 14 day",80%
same,MCH,"[…], time 14 day",21.5 pg
same,MCHC,"[…], time 14 day",35.7%
same,MCV,"[…], time 14 day",60.3 fL
same,Mono,"[…], time 14 day",2.4%
same,Neu,"[…], time 14 day",15.4%
same,PT,"[…], time 14 day",12.1 s
same,Plat,"[…], time 14 day",117 x10_4/uL
same,RBC,"[…], time 14 day",673.6 x10_4/ul
same,Ret,"[…], time 14 day",4%
same,WBC,"[…], time 14 day",93.1 x10_2/uL
same,APTT,"[…], time 28 day",18.7 s
same,Bas,"[…], time 28 day",0%
same,Eos,"[…], time 28 day",1.2%
same,Fbg,"[…], time 28 day",248.6 mg/dL
same,Hb,"[…], time 28 day",15.6 g/dL
same,Ht,"[…], time 28 day",43.9%
same,Lym,"[…], time 28 day",81.8%
same,MCH,"[…], time 28 day",20.4 pg
same,MCHC,"[…], time 28 day",35.5%
same,MCV,"[…], time 28 day",57.5 fL
same,Mono,"[…], time 28 day",2.2%
same,Neu,"[…], time 28 day",13%
same,PT,"[…], time 28 day",12.1 s
same,Plat,"[…], time 28 day",107.9 x10_4/uL
same,RBC,"[…], time 28 day",764.2 x10_4/ul
same,Ret,"[…], time 28 day",2.5%
same,WBC,"[…], time 28 day",93.1 x10_2/uL
same,KIDNEY_L,"[…], time 7 day",1.1 g
same,KIDNEY_R,"[…], time 7 day",1.1 g
same,KIDNEY_TOTAL,"[…], time 7 day",2.2 g
same,KIDNEY_L,"[…], time 14 day",1.2 g
same,KIDNEY_R,"[…], time 14 day",1.2 g
same,KIDNEY_TOTAL,"[…], time 14 day",2.4 g
same,KIDNEY_L,"[…], time 28 day",1.4 g
same,KIDNEY_R,"[…], time 28 day",1.4 g
same,KIDNEY_TOTAL,"[…], time 28 day",2.8 g
same,LIVER,"[…], time 7 day",12.3 g
same,LIVER,"[…], time 14 day",13.7 g
same,LIVER,"[…], time 28 day",16.1 g
same,A/G,"[…], time 7 day",1.6
same,ALP,"[…], time 7 day",1054 IU/L
same,ALT,"[…], time 7 day",38.2 IU/L
same,AST,"[…], time 7 day",69.8 IU/L
same,BUN,"[…], time 7 day",15 mg/dL
same,CRE,"[…], time 7 day",0.4 mg/dL
same,Ca,"[…], time 7 day",10.6 mg/dL
same,Cl,"[…], time 7 day",102.8 meq/L
same,DBIL,"[…], time 7 day",0.098 mg/dL
same,GLC,"[…], time 7 day",222.6 mg/dL
same,IP,"[…], time 7 day",7.2 mg/dL
same,K,"[…], time 7 day",3.7 meq/L
same,LDH,"[…], time 7 day",204.4 IU/L
same,Na,"[…], time 7 day",140.2 meq/L
same,PL,"[…], time 7 day",152.4 mg/dL
same,RALB,"[…], time 7 day",3.5 g/dL
same,TBIL,"[…], time 7 day",0.2 mg/dL
same,TC,"[…], time 7 day",75.8 mg/dL
same,TG,"[…], time 7 day",114.2 mg/dL
same,TP,"[…], time 7 day",5.7 g/dL
same,gamma-GTP,"[…], time 7 day",0.8 IU/L
same,A/G,"[…], time 14 day",1.4
same,ALP,"[…], time 14 day",881.8 IU/L
same,ALT,"[…], time 14 day",33.4 IU/L
same,AST,"[…], time 14 day",57.8 IU/L
same,BUN,"[…], time 14 day",16 mg/dL
same,CRE,"[…], time 14 day",0.4 mg/dL
same,Ca,"[…], time 14 day",10.6 mg/dL
same,Cl,"[…], time 14 day",103.4 meq/L
same,DBIL,"[…], time 14 day",0.098 mg/dL
same,GLC,"[…], time 14 day",205.2 mg/dL
same,IP,"[…], time 14 day",7.1 mg/dL
same,K,"[…], time 14 day",3.9 meq/L
same,LDH,"[…], time 14 day",152.4 IU/L
same,Na,"[…], time 14 day",140.8 meq/L
same,PL,"[…], time 14 day",151.4 mg/dL
same,RALB,"[…], time 14 day",3.3 g/dL
same,TBIL,"[…], time 14 day",0.2 mg/dL
same,TC,"[…], time 14 day",74.4 mg/dL
same,TG,"[…], time 14 day",125 mg/dL
same,TP,"[…], time 14 day",5.7 g/dL
same,gamma-GTP,"[…], time 14 day",1 IU/L
same,A/G,"[…], time 28 day",1.4
same,ALP,"[…], time 28 day",696 IU/L
same,ALT,"[…], time 28 day",32.8 IU/L
same,AST,"[…], time 28 day",57.8 IU/L
same,BUN,"[…], time 28 day",17.8 mg/dL
same,CRE,"[…], time 28 day",0.5 mg/dL
same,Ca,"[…], time 28 day",10.5 mg/dL
same,Cl,"[…], time 28 day",103.8 meq/L
same,DBIL,"[…], time 28 day",0.082 mg/dL
same,GLC,"[…], time 28 day",227 mg/dL
same,IP,"[…], time 28 day",6.6 mg/dL
same,K,"[…], time 28 day",3.5 meq/L
same,LDH,"[…], time 28 day",103.4 IU/L
same,Na,"[…], time 28 day",141.2 meq/L
same,PL,"[…], time 28 day",146.2 mg/dL
same,RALB,"[…], time 28 day",3.5 g/dL
same,TBIL,"[…], time 28 day",0.1 mg/dL
same,TC,"[…], time 28 day",78.2 mg/dL
same,TG,"[…], time 28 day",97 mg/dL
same,TP,"[…], time 28 day",6.1 g/dL
same,gamma-GTP,"[…], time 28 day",1.2 IU/L
